Measured values as given in publication PMC6017909, “Synthesis and Evaluation of the Tumor Cell Growth Inhibitory Potential of New Putative HSP90 Inhibitors” (Molecules : A Journal of Synthetic Chemistry and Natural …, 2018).
Blank lines part the entries; values can stand above or below the compound they belong to.

Tests used:
NCI-H460 [1] = test: Cellular proliferation, BrdU incorporation assay; type: cell-based, human; details: 48 h
Protocol: NCI-H460 cells were plated in 6-well plates (1 × 10^5 cells/well) in RPMI-1640 medium with UltraGlutamine I and 25 mM Hepes (Lonza) supplemented with 10% FBS (PAA) at 37 °C in a humidified incubator with 5% CO2 for 24 h. […] These concentrations corresponded respectively to 5.2 μM and 7.8 μM for compound 5 and to 3.2 μM and 4.8 μM for compound 8. Cells were also incubated with medium only (Blank) or with the vehicle (solvent, H2O), corresponding to the highest concentration used when testing the compounds. Following treatment with the compounds, cells were further processed as follows. Following 47 h treatment, cells were further incubated with 10 μM bromodeoxyuridine (BrdU; Sigma) for 1 h. Cells were then trypsinized and fixed in 4% paraformaldehyde (in PBS) for 30 min. Cytopsins were prepared and a 20 min denaturation step was carried out by incubating slides in 2 M HCl. Following incubation with mouse anti-BrdU primary antibody (1/10, Dako) for 1 h at room temperature (RT), cells were further incubated with anti-mouse-Ig-FITC (1/100, Dako) for 30 min, at RT [21]. Slides were then mounted with Vectashield mounting medium with DAPI (Vector Laboratories). The percentage of BrdU incorporating cells was determined by counting a minimum of 500 cells per slide (except for one experiment in which due to technical difficulties less cells were counted when testing the compound 8) using a fluorescence microscope (DM2000; Leica, Wetzlar, Germany ).

STO = test: Cell-counting assay, 72-h drug exposure; type: cell-based; details: Homo sapiens, read-out: Cell Growth Inhibitory Activity STO IC50 72 h
Description: (§1) For the cytotoxic activity studies and determination of GI50 concentrations in three different tumor cell lines, the cell culture conditions are described in Section 3.5. For the studies on the effect on % viable cells, cell cycle, cellular proliferation, and apoptosis, culture conditions are described in Section 3.6.1. For the remaining studies, the epithelial carcinoma cell line A431 and the non-small cell lung carcinoma cell line NCI-H460 were routinely grown in RPMI 1640 (Lonza, Vierviers, Belgium), supplemented with 10% (v/v) heat-inactivated fetal bovine serum (FBS, GIBCO, Invitrogen, Paisley, UK). The human peritoneal mesothelioma cell line STO was kindly provided by Dr. N. Zaffaroni (IRCCS Istituto Nazionale Tumori, Milan, Italy) and grown in 50/50 DMEM-Ham’s F12 medium (Lonza, Vierviers, Belgium), supplemented with 10% (v/v) heat-inactivated foetal bovine serum and 2 mM L-glutamine (L-Gln). All cell lines were maintained at 37 °C in a 5%/95% CO2/air atmosphere. All the compounds tested were freshly prepared by dissolving powder in dimethylsulfoxide (DMSO) (BDH Prolabo, Milan, Italy) and following dilution in culture medium. Cells were incubated with drugs for 48 h or 72 h (unless otherwise stated) at 37 °C in culture medium supplemented with 10% (v/v) heat-inactivated FBS; drug concentrations used for each assay and duration of treatments are reported in Legends to Figures.
(§2) Cellular sensitivity to drugs was evaluated by a cell-counting assay after 72-h drug exposure. Cells in the logarithmic phase of growth were seeded in duplicate into 6-well plates. Twenty-four hours after seeding, the drug was added to the medium. Cells were harvested 72 h after drug exposure and counted with a cell counter.

A431 = test: Cell-counting assay, 72-h drug exposure; type: cell-based; details: Homo sapiens, A-431, read-out: Cell Growth Inhibitory Activity A431 IC50 72 h
Description: as §1, §2

[2] = Viable cell number, trypan blue exclusion assay; type: cell-based; details: human, NCI-H460 cells, read-out: Number of viable cells (in relation to Blank cells)
Protocol: NCI-H460 cells were plated in 6-well plates (1 × 10^5 cells/well) in RPMI-1640 medium with UltraGlutamine I and 25 mM Hepes (Lonza) supplemented with 10% FBS (PAA) at 37 °C in a humidified incubator with 5% CO2 for 24 h. […] These concentrations corresponded respectively to 5.2 μM and 7.8 μM for compound 5 and to 3.2 μM and 4.8 μM for compound 8. Cells were also incubated with medium only (Blank) or with the vehicle (solvent, H2O), corresponding to the highest concentration used when testing the compounds. Following treatment with the compounds, cells were further processed as follows.
Cell number and % viable cells was determined with the Trypan blue exclusion assay.

[3] = system: HSP90 client proteins in A431 cells; test: HSP90 client protein levels by Western blot; type: cell-based, human; details: 24 h
Description: as §1
(§3) Total cell lysates were prepared as described previously. Primary antibodies used in this study are: anti-Raf-1 and anti-CDK4 (Santa Cruz Biotechnology Inc., Santa Cruz, CA, USA), anti-Survivin (Abcam, Cambridge, UK), anti-Akt (Transduction Laboratories, Lexington, KY, USA), and anti-Actin Sigma Chemical Co., St. Louis, MO, USA).

[4] = system: HSP90 client proteins in STO cells; test: HSP90 client protein levels by Western blot; type: cell-based, human; details: 24 h
Description: as §1, §3

NCI-H460 [5] = test: Apoptosis, Annexin V-FITC/PI flow cytometry; type: cell-based, human; details: for % Apoptosis: 48 h, sum of early and late apoptosis; for Induction of apoptosis at cytotoxic concentrations: GI50 and 1.5× GI50, 48 h, Annexin V and propidium iodide
Protocol: NCI-H460 cells were plated in 6-well plates (1 × 10^5 cells/well) in RPMI-1640 medium with UltraGlutamine I and 25 mM Hepes (Lonza) supplemented with 10% FBS (PAA) at 37 °C in a humidified incubator with 5% CO2 for 24 h. […] These concentrations corresponded respectively to 5.2 μM and 7.8 μM for compound 5 and to 3.2 μM and 4.8 μM for compound 8. Cells were also incubated with medium only (Blank) or with the vehicle (solvent, H2O), corresponding to the highest concentration used when testing the compounds. Following treatment with the compounds, cells were further processed as follows. Following 48 h treatment, the levels of apoptosis were assessed using the “Human AnnexinV-FITC/PI apoptosis” kit (Bender MedSystems, Wien, Austria) as previously described. Briefly, cell pellets were resuspended in binding buffer and further incubated with Annexin V-FITC and with propidium iodide. Samples were analyzed in a FACSCalibur flow cytometer (BD Biosciences, Erembodegem, Belgium), plotting at least 15,000 events and using the FlowJo 7.6.5 software (Tree Star, Inc., Ashland, OR, USA).

IC50 (A431): 260 ± 400 nM
SMILES: O=c1c2ccccc2sc2c[n+](Cc3ccccc3)ccc12.[Br-] [Compound 8, 2-Benzyl-5-oxo-5H-thiochromeno[2,3-c]pyridin-2-ium bromide]
Percentage of BrdU-incorporating cells (NCI-H460 [1]; 1.5× GI50 (4.8 μM), untreated cells 31%): 21%
Percentage of BrdU-incorporating cells (NCI-H460 [1]; GI50 (3.2 μM), untreated cells 31%): 26%
IC50 (STO): 260 ± 80 nM
viability at 48 h, 3.2 µM ([2]; 3.2 μM (GI50)): 57%
viability at 48 h, 4.8 µM ([2]; 4.8 μM (1.5× GI50)): 29%
Akt protein level ([3]; 2.6 μM): partial downregulation
EGFR protein level ([3]; 2.6 μM): partial downregulation
RAF protein level ([3]; 2.6 μM): strong downregulation
Survivin protein level ([3]; 2.6 μM, compared with STO cells): less marked
Survivin protein level ([4]; 2.6 μM): caused degradation
% Apoptosis (NCI-H460 [5]; 3.2 μM, Blank 5.2 ± 0.9): 6.7 ± 1.4%
% Apoptosis (NCI-H460 [5]; 4.8 μM, Blank 5.2 ± 0.9): 12.5 ± 1.7 %
Induction of apoptosis at cytotoxic concentrations (NCI-H460 [5]): induced apoptosis

SMILES: O=c1c2ccccc2oc2c[n+](Cc3ccccc3)ccc12.[Br-] [Compound 5, 2-Benzyl-10-oxo-10H-9-oxa-2-azonia-anthracene bromide]
Percentage of BrdU-incorporating cells (NCI-H460 [1]; 1.5× GI50 (7.8 μM), untreated cells 32%): 22%
Percentage of BrdU-incorporating cells (NCI-H460 [1]; GI50 (5.2 μM), untreated cells 32%): 25%
IC50 (STO): 2700 ± 800 nM
IC50 (A431): 1360 ± 50 nM
viability at 48 h, 5.2 µM ([2]; 5.2 μM (GI50)): 71%
viability at 48 h, 7.8 µM ([2]; 7.8 μM (1.5× GI50)): 49%
CDK4 protein level ([3]; 5.4 μM): almost complete downregulation
Survivin protein level ([3]; 5.4 μM): partial downregulation
CDK4 protein level ([4]; 2.7 μM): almost complete downregulation
Survivin protein level ([4]; 2.7 μM): partial downregulation
% Apoptosis (NCI-H460 [5]; 5.2 μM, Blank 7.0 ± 0.6): 7.2 ± 1.4%
% Apoptosis (NCI-H460 [5]; 7.8 μM, Blank 7.0 ± 0.6): 7.3 ± 0.9%
Induction of apoptosis at cytotoxic concentrations (NCI-H460 [5]): did not induce apoptosis
